Read-outs that look alike come from different tables or passages of the source.
What was measured:
Type in all cases: biochemical
δ opioid receptor = target: T1, δ opioid receptor (Homo sapiens, UniProt P41143); assay: Inhibition of DPDPE-stimulated [35S]GTPγS binding
T1 construct: expressed in transfected cells

μ opioid receptor = target: T2, μ opioid receptor (Homo sapiens, UniProt P35372); assay: Inhibition of DAMGO-stimulated [35S]GTPγS binding
T2 construct: expressed in transfected cells

κ opioid receptor = target: T3, κ opioid receptor (Homo sapiens, UniProt P41145); assay: Inhibition of U69,593-stimulated [35S]GTPγS binding; conditions: for δ/κ (selectivity for κ relative to δ): ratio of Ke values δ/κ; for δ/κ (selectivity for κ relative to δ) / μ/κ (selectivity for κ relative to μ): fold; for μ/κ (selectivity for κ relative to μ): ratio of Ke values μ/κ
T3 construct: expressed in transfected cells

[1] = cloned human κ receptor, agonist U69,593, [35S]GTPγS binding, read-out: κ, U69,593 Ke
[2] = cloned human μ receptor, agonist DAMGO, [35S]GTPγS binding, read-out: μ, DAMGO Ke
[3] = cloned human δ receptor, agonist DPDPE, [35S]GTPγS binding, read-out: δ, DPDPE Ke

T1 sequence (P41143 whole entry): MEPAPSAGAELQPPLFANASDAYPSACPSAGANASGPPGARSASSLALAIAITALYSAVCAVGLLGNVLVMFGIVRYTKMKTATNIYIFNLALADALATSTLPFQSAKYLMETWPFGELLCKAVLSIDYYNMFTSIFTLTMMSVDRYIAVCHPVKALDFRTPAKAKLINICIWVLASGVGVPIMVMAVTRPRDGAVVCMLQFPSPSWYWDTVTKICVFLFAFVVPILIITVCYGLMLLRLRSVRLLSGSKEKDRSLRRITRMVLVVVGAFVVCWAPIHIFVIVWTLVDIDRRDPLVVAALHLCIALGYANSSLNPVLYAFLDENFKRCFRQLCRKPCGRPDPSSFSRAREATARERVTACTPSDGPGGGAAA
T3 sequence (P41145 whole entry): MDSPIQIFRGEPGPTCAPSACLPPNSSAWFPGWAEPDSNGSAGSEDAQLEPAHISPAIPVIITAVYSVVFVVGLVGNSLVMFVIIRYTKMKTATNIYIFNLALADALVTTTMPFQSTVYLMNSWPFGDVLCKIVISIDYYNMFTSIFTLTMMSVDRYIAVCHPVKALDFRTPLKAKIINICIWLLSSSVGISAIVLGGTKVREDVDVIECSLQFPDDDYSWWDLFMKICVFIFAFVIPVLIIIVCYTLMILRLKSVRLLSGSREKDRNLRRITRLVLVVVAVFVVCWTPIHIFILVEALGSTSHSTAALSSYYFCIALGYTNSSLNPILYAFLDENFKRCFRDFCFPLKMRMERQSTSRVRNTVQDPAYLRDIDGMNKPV
T2 sequence (P35372 whole entry): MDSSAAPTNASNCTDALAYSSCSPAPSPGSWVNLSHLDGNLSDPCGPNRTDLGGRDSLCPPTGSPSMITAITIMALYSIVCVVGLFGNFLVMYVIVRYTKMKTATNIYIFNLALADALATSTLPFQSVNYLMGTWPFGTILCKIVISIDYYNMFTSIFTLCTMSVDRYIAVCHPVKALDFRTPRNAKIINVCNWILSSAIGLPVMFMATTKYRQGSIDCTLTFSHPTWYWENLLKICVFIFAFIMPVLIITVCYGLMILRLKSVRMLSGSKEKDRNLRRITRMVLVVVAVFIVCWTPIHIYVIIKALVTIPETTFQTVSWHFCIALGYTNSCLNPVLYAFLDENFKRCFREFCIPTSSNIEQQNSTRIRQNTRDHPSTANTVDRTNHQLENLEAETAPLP

Row | Compound | δ/κ (selectivity for κ relative to δ) (κ opioid receptor) | μ/κ (selectivity for κ relative to μ) (κ opioid receptor) | Kb (κ opioid receptor; [1]) | Kb (μ opioid receptor; [2]) | Kb (δ opioid receptor; [3]) | further results
1 | CC(C)[C@@H](CN1CCCCC1)NC(=O)[C@H]1Cc2ccc(O)cc2CN1 [Compound 3, (3R)-7-Hydroxy-N-[(1S)-2-methyl-1-(piperidin-1-ylmethyl)propyl]-1,2,3,4-tetrahydroisoquinoline-3-carboxamide] |  |  |  |  |  | Kb (δ opioid receptor): > 3000 nM
2 | CC(C)[C@@H](CO)NC(=O)[C@H]1Cc2ccc(O)cc2CN1 [Compound 4, (3R)-7-Hydroxy-N-[(1S)-1-(hydroxymethyl)-2-methylpropyl]-1,2,3,4-tetrahydroisoquinoline-3-carboxamide] | >76 | >76 |  |  |  | Kb (μ opioid receptor): > 3000 nM; Kb (δ opioid receptor): > 3000 nM; Kb (κ opioid receptor; κ, U69,593 Ke, cloned human κ receptor, agonist U69,593, [35S]GTPγS binding): 39.1 ± 3.8 nM
3 | CC(C)[C@@H](CN1CCOCC1)NC(=O)[C@H]1Cc2ccc(O)cc2CN1 [Compound 5, (3R)-7-Hydroxy-N-[(1S)-2-methyl-1-(morpholin-4-ylmethyl)propyl]-1,2,3,4-tetrahydroisoquinoline-3-carboxamide] |  |  | 396 ± 140 nM |  |  | 
4 | CC(C)[C@@H](CN1CCC(C)(C)CC1)NC(=O)[C@H]1Cc2ccc(O)cc2CN1 [Compound 9, (3R)—N-{(1S)-1-[(4,4-Dimethylpiperidin-1-yl)methyl]-2-methylpropyl}-7-hydroxy-1,2,3,4-tetrahydroisoquinoline-3-carboxamide] | 405 | 68 | 2.09 ± 0.42 nM | 142 nM | 847 nM | 
5 | CC(C)CN(CC(C)C)C[C@@H](NC(=O)[C@H]1Cc2ccc(O)cc2CN1)C(C)C [Compound 10, (3R)—N-{(1S)-1-{[Bis(2-methylpropyl)amino]methyl}-2-methylpropyl]-7-hydroxy-1,2,3,4-tetrahydroisoquinoline-3-carboxamide] |  |  | 137 ± 24 nM |  |  | 
6 | CCN(CC)C[C@@H](NC(=O)[C@H]1Cc2ccc(O)cc2CN1)C(C)C [Compound 11, (3R)—N-{(1S)-1-[(4,4-Diethylamino)methyl]-2-methylpropyl]-7-hydroxy-1,2,3,4-tetrahydroisoquinoline-3-carboxamide] | >72 | 16.5 |  |  | >3000 nM | μ, DAMGO Ke (μ opioid receptor; cloned human μ receptor, agonist DAMGO, [35S]GTPγS binding): 690 ± 110 nM; κ, U69,593 Ke (κ opioid receptor; cloned human κ receptor, agonist U69,593, [35S]GTPγS binding): 41.8 ± 12 nM
7 | CC(C)[C@@H](CN1CCCCC1C)NC(=O)[C@H]1Cc2ccc(O)cc2CN1 (stereo partly drawn) [Compound 12, (3R)-7-Hydroxy-N-{(1S)-2-methyl-1-[(2-methylpiperidin-1-yl)methyl]propyl}-1,2,3,4-tetrahydroisoquinoline-3-carboxamide] | 199 | 3 | 15.1 ± 4.2 nM | 44.9 ± 11 nM |  | 
8 | COC1CCN(C[C@@H](NC(=O)[C@H]2Cc3ccc(O)cc3CN2)C(C)C)CC1 [Compound 13, (3R)-7-Hydroxy-N-{(1S)-2-methyl-1-[(4-methoxypiperidin-1-yl)methyl]propyl}-1,2,3,4-tetrahydroisoquinoline-3-carboxamide] | >459 | 30 | 6.53 ± 1.8 nM | 198 ± 48 nM |  | 
9 | CC(C)[C@@H](CN1CCC(C(F)(F)F)CC1)NC(=O)[C@H]1Cc2ccc(O)cc2CN1 [Compound 14, (3R)-7-Hydroxy-N-[(1S)-2-methyl-1-{[4-(trifluoromethyl)piperidin-1-yl]methyl}propyl]-1,2,3,4-tetrahydroisoquinoline-3-carboxamide] | >640 | 14 | 4.69 ± 0.29 nM | 67.9 ± 12 nM |  | 
10 | CC(C)[C@@H](CN1CCN(C)CC1)NC(=O)[C@H]1Cc2ccc(O)cc2CN1 [Compound 19, (3R)-7-Hydroxy-N-{(1S)-2-methyl-1-[(4-methylpiperizin-1-yl)methyl]propyl}-1,2,3,4-tetrahydroisoquinoline-3-carboxamide] | >333 | 9 | 98.8 ± 28 nM | 915 ± 303 nM |  | 
11 | CC1CCN(C[C@H](C(C)C)N(C)C(=O)[C@H]2Cc3ccc(O)cc3CN2)CC1 [Compound 30, (3R)-7-Hydroxy-N-methyl-N-{(1S)-2-methyl-1-[(4-methylpiperidin-1-yl)methyl]propyl}-1,2,3,4-tetrahydroisoquinoline-3-carboxamide] | 34 | 4.6 | 88.4 ± 17 nM |  | > 3000 nM | Kb (μ opioid receptor): 406 ± 86 nM
12 | CC1CCN(C[C@H](C(C)C)N(C)C[C@H]2Cc3ccc(O)cc3CN2)CC1 [Compound 53, (3R)-3-[(Methyl{(1S)-2-methyl-1-[(4-methylpiperidin-1-yl)methyl]propyl}amino)methyl]-1,2,3,4-tetrahydroisoquinolin-7-ol] | >163 | 35 | 18.4 ± 2 nM |  | > 3000 nM | Kb (μ opioid receptor): 647 ± 150 nM
13 | O=C(NCCc1ccccc1)[C@H]1Cc2ccc(O)cc2CN1 [Compound 56, (3R)-7-Hydroxy-N-(2-phenylethyl)-1,2,3,4-tetrahydroisoquinoline-3-carboxamide] |  |  |  |  | > 3000 nM | Kb (μ opioid receptor): 277 ± 77 nM
14 | CC(C)[C@@H](CN1CCC(C(F)F)CC1)NC(=O)[C@H]1Cc2ccc(O)cc2CN1 [Compound 59, (3R)—N-[(1S)-1-{[4-(Difluoromethyl)piperidin-1-yl]methyl}-2-methylpropyl]-7-hydroxy-1,2,3,4-tetrahydroisoquinoline-3-carboxamide] |  |  | 3.45 ± 1.2 nM | 70.9 ± 9.4 nM |  | 
15 | CC1CCC(C[C@@H](NC(=O)[C@H]2Cc3ccc(O)cc3CN2)C(C)C)CC1 (stereo partly drawn) [Compound 66, (3R)-7-Hydroxy-N-{(1R)-2-methyl-1-[(4-methylcyclohexyl)methyl]propyl}-1,2,3,4-tetrahydroisoquinoline-3-carboxamide] |  |  |  | 221 ± 41 nM |  | 

Second part, led by results:

Row | δ/κ (selectivity for κ relative to δ) (κ opioid receptor) | μ/κ (selectivity for κ relative to μ) (κ opioid receptor) | Kb (κ opioid receptor; [1]) | Kb (μ opioid receptor; [2]) | Compound | Kb (δ opioid receptor; [3]) | further results
16 | 932 | 43 | 3.22 ± 0.78 nM | 129 ± 26 nM | CC(C)[C@@H](CN1CCC(C(N)=O)CC1)NC(=O)[C@H]1Cc2ccc(O)cc2CN1 [Compound 22] |  | 
17 | 1004 | 30 | 2.48 ± 0.7 nM | 74.8 ± 23 nM | CCC1CCN(C[C@@H](NC(=O)[C@H]2Cc3ccc(O)cc3CN2)C(C)C)CC1 [Compound 24, (3R)—N-{(1S)-1-[(4-Ethylpiperidin-1-yl)methyl]-2-methylpropyl}-7-hydroxy-1,2,3,4-tetrahydroisoquinoline-3-carboxamide] | 2490 ± 620 nM | 
18 | >236 | 51 | 12.7 ± 3.1 nM | 647 ± 150 nM | CC(C)[C@@H](CN1CCC(C#N)CC1)NC(=O)[C@H]1Cc2ccc(O)cc2CN1 [Compound 39, (3R)—N-{(1S)-1-[(4-Cyanopiperidin-1-yl)methyl]-2-methylprolyl}-7-hydroxy-1,2,3,4-tetrahydroisoquinoline-3-carboxamide] |  | 
19 |  |  |  | 344 ± 100 nM | CC(C)[C@@H](CC1CCCC1)NC(=O)[C@H]1Cc2ccc(O)cc2CN1 [Compound 40, (3R)—N-[(1R)-1-(Cyclopentylmethyl)-2-methylpropyl]-7-hydroxy-1,2,3,4-tetrahydroisoquinoline-3-carboxamide] | 1570 ± 380 nM | 
20 | >254 | 51 | 11.8 ± 3 nM | 604 ± 83 nM | CC(C)[C@@H](CN1CCC(F)(F)CC1)NC(=O)[C@H]1Cc2ccc(O)cc2CN1 [Compound 54, (3R)—N-{[(1S)-1-[4,4-Difluoropiperidin-1-yl]methyl]-2-methylpropyl}-7-hydroxy-1,2,3,4-tetrahydroisoquinoline-3-carboxamide] |  | 
21 | >371 | 39 | 8.08 ± 1.2 nM | 318 ± 8.4 nM | CC(C)[C@@H](CN1CCC(N(C)C)CC1)NC(=O)[C@H]1Cc2ccc(O)cc2CN1 [Compound 58, (3R)—N-[(1S)-1-{[4-(Dimethylamino)piperidin-1-yl]methyl}-2-methylpropyl]-7-hydroxy-1,2,3,4-tetrahydroisoquinoline-3-carboxamide] |  | 
